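Assay format: 96-well plates, 48-hour exposure. GI50 marks 50% less growth.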 Activity calls are given as the source filed them. Rule as the data show it: active = GI50 up to about 1.1 µM and inactive = higher.
Key:
Assay in all cases: DTP human tumour cell line panel, 48 h
MOLT-4 = system: MOLT-4
SK-MEL-28 = system: SK-MEL-28
A549 = system: A549
KM12 = system: KM12
NCI/ADR-RES = system: NCI/ADR-RES
KM-20L2 = system: KM-20L2
SNB-19 = system: SNB-19
MCF7 = system: MCF7
Malme-3M = system: Malme-3M
HCT-116 = system: HCT-116
DMS-273 = system: DMS-273
UACC-62 = system: UACC-62
NCI-H522 = system: NCI-H522
HOP-92 = system: HOP-92
NCI-H23 = system: NCI-H23
SW-620 = system: SW-620
M14 = system: M14
LXFL 529 = system: LXFL 529
MDA-MB-435 = system: MDA-MB-435
Hs-578T = system: Hs-578T

| Compound | GI50 (MOLT-4) | GI50 (SK-MEL-28) | GI50 (A549) | GI50 (KM12) | GI50 (NCI/ADR-RES) | GI50 (KM-20L2) | GI50 (SNB-19) | GI50 (MCF7) | GI50 (Malme-3M) | GI50 (HCT-116) | GI50 (DMS-273) | GI50 (UACC-62) | GI50 (NCI-H522) | GI50 (HOP-92) | GI50 (NCI-H23) | GI50 (SW-620) | GI50 (M14) | GI50 (LXFL 529) | GI50 (MDA-MB-435) | GI50 (Hs-578T) |
| --- | --- | --- | --- | --- | --- | --- | --- | --- | --- | --- | --- | --- | --- | --- | --- | --- | --- | --- | --- | --- |
| N#CC(OC1OC(COC2OC(CO)C(O)C(O)C2O)C(O)C(O)C1O)c1ccccc1 (stereo not drawn) | > 225 µM (inactive) | > 225 µM (inactive) | > 225 µM (inactive) | > 225 µM (inactive) | > 225 µM (inactive) | > 225 µM (inactive) | > 225 µM (inactive) | > 225 µM (inactive) | > 225 µM (inactive) | > 225 µM (inactive) | > 225 µM (inactive) | > 225 µM (inactive) | > 225 µM (inactive) | > 225 µM (inactive) | > 225 µM (inactive) | > 225 µM (inactive) | – | – | – | – |
| CN(C)c1ccc(/C=C/C(=O)O)cc1 | > 100 µM (inactive) | – | > 100 µM (inactive) | > 100 µM (inactive) | – | > 100 µM (inactive) | > 100 µM (inactive) | – | > 100 µM (inactive) | > 100 µM (inactive) | – | > 100 µM (inactive) | > 100 µM (inactive) | – | – | > 100 µM (inactive) | > 100 µM (inactive) | > 100 µM (inactive) | – | – |
| C=C1CC(OC)(C(O)C(=O)N[C@H]2OCO[C@H]3C2O[C@H](C[C@H](O)COC)C(C)(C)C3OC)O[C@H](C)[C@@H]1C (stereo partly drawn) | < 0.00773 µM (active) | < 0.00773 µM (active) | < 0.00773 µM (active) | < 0.00773 µM (active) | < 0.00773 µM (active) | < 0.00773 µM (active) | < 0.00773 µM (active) | < 0.00773 µM (active) | – | < 0.00773 µM (active) | < 0.00773 µM (active) | < 0.00773 µM (active) | < 0.00773 µM (active) | – | < 0.00773 µM (active) | < 0.00773 µM (active) | – | – | – | – |
| CCOC(=O)C(N=C(c1ccccc1)c1ccccc1)N(C(=O)OC(C)(C)C)C(=O)OC(C)(C)C (stereo not drawn) | > 100 µM (inactive) | > 100 µM (inactive) | > 100 µM (inactive) | > 100 µM (inactive) | – | > 100 µM (inactive) | > 100 µM (inactive) | – | > 100 µM (inactive) | > 100 µM (inactive) | – | > 100 µM (inactive) | > 100 µM (inactive) | 7.45 µM (inactive) | > 100 µM (inactive) | > 100 µM (inactive) | – | 75.2 µM (inactive) | – | – |
| O=c1[nH]cc(COCC(F)(F)C(F)(F)C(F)(F)C(F)F)c(=O)[nH]1 | > 100 µM (inactive) | > 100 µM (inactive) | > 100 µM (inactive) | > 100 µM (inactive) | – | > 100 µM (inactive) | > 100 µM (inactive) | – | > 100 µM (inactive) | > 100 µM (inactive) | – | > 100 µM (inactive) | > 100 µM (inactive) | > 100 µM (inactive) | > 100 µM (inactive) | > 100 µM (inactive) | > 100 µM (inactive) | > 100 µM (inactive) | – | – |
| C#CCCCCC#CC1CCCC1C1=CC(=O)c2ccccc21 (stereo not drawn) | 2.25 µM (inactive) | 5.18 µM (inactive) | 13.5 µM (inactive) | 6.27 µM (inactive) | – | 10.3 µM (inactive) | 15.5 µM (inactive) | – | 6.55 µM (inactive) | 1.47 µM (inactive) | 3.49 µM (inactive) | 2.05 µM (inactive) | 7.93 µM (inactive) | 4.09 µM (inactive) | 10.6 µM (inactive) | 2.28 µM (inactive) | 5.07 µM (inactive) | – | – | – |
| CC(=O)c1ccc(NC(=O)C(=O)C(C#N)CC(C)(C)C=O)cc1 (stereo not drawn) | > 100 µM (inactive) | > 100 µM (inactive) | > 100 µM (inactive) | > 100 µM (inactive) | – | > 100 µM (inactive) | > 100 µM (inactive) | – | > 100 µM (inactive) | > 100 µM (inactive) | – | > 100 µM (inactive) | > 100 µM (inactive) | 68.4 µM (inactive) | > 100 µM (inactive) | > 100 µM (inactive) | > 100 µM (inactive) | > 100 µM (inactive) | – | – |
| CC(C)(Br)C(=O)/C=C/c1ccccc1 | 1.41 µM (inactive) | 14.9 µM (inactive) | 14.8 µM (inactive) | 13.1 µM (inactive) | 17.6 µM (inactive) | – | 22 µM (inactive) | 3.56 µM (inactive) | 2.62 µM (inactive) | 0.625 µM (active) | – | 5.73 µM (inactive) | 0.136 µM (active) | 4.35 µM (inactive) | 1.94 µM (inactive) | 2.39 µM (inactive) | 1.56 µM (inactive) | – | 5.46 µM (inactive) | 11.5 µM (inactive) |
| Cc1nc(=O)n2c(c1C(=O)Nc1ccc(Cl)cc1)NCCC2 | > 100 µM (inactive) | > 100 µM (inactive) | > 100 µM (inactive) | > 100 µM (inactive) | – | – | 32 µM (inactive) | – | > 100 µM (inactive) | > 100 µM (inactive) | – | > 100 µM (inactive) | 2.97 µM (inactive) | > 100 µM (inactive) | > 100 µM (inactive) | > 100 µM (inactive) | > 100 µM (inactive) | > 100 µM (inactive) | – | – |
| CC(C)=CC[S+]([O-])c1ccccc1NC1=CC(=O)CC(C)(C)C1 (stereo not drawn) | > 100 µM (inactive) | > 100 µM (inactive) | > 100 µM (inactive) | > 100 µM (inactive) | > 100 µM (inactive) | – | > 100 µM (inactive) | > 100 µM (inactive) | > 100 µM (inactive) | > 100 µM (inactive) | – | > 100 µM (inactive) | > 100 µM (inactive) | > 100 µM (inactive) | > 100 µM (inactive) | > 100 µM (inactive) | > 100 µM (inactive) | – | > 100 µM (inactive) | > 100 µM (inactive) |
| COC(=O)C1=C(C(=O)OC)SC2(S1)C(C(=O)OC)=C(C(=O)OC)Sc1c2ss/c1=N\c1ccc(Cl)cc1 | 0.336 µM (active) | 1.7 µM (inactive) | 1.56 µM (inactive) | 0.767 µM (active) | 1.84 µM (inactive) | – | 1.53 µM (inactive) | 1.11 µM (active) | 1.83 µM (inactive) | 0.283 µM (active) | – | 1.19 µM (inactive) | 0.352 µM (active) | 0.638 µM (active) | 1.83 µM (inactive) | 0.425 µM (active) | 1.43 µM (inactive) | – | 0.794 µM (active) | 2.84 µM (inactive) |
| Nc1nc(N)c2ncn(Cc3ccccc3CO)c2n1 | > 100 µM (inactive) | > 100 µM (inactive) | > 100 µM (inactive) | > 100 µM (inactive) | > 100 µM (inactive) | – | > 100 µM (inactive) | > 100 µM (inactive) | > 100 µM (inactive) | > 100 µM (inactive) | – | > 100 µM (inactive) | > 100 µM (inactive) | > 100 µM (inactive) | > 100 µM (inactive) | > 100 µM (inactive) | > 100 µM (inactive) | – | > 100 µM (inactive) | > 100 µM (inactive) |
| CC1=C(C(=O)Nc2ccccc2)C2(CCCCC2)C(C#N)=C(SCC(=O)Nc2ccc(Br)cc2)N1 | 2.82 µM (inactive) | 5.73 µM (inactive) | 3.77 µM (inactive) | 3.2 µM (inactive) | 3.88 µM (inactive) | – | 6.49 µM (inactive) | 4.51 µM (inactive) | 1.82 µM (inactive) | 2.51 µM (inactive) | – | 6.85 µM (inactive) | 2.06 µM (inactive) | 3.11 µM (inactive) | 4.1 µM (inactive) | 5.43 µM (inactive) | 3.61 µM (inactive) | – | 4.47 µM (inactive) | 3.57 µM (inactive) |
| COc1cc(OC)c(/C=N/N=C(\N)NO)c(OC)c1 | > 100 µM (inactive) | > 100 µM (inactive) | 60.8 µM (inactive) | 0.787 µM (active) | > 100 µM (inactive) | – | > 100 µM (inactive) | > 100 µM (inactive) | > 100 µM (inactive) | > 100 µM (inactive) | – | 25.6 µM (inactive) | > 100 µM (inactive) | > 100 µM (inactive) | > 100 µM (inactive) | > 100 µM (inactive) | 95.5 µM (inactive) | – | 49.8 µM (inactive) | > 100 µM (inactive) |
| O=C(OC1C#CCSCC#C/C=C\1)c1ccc2c(c1)C(=O)c1ccccc1C2=O (stereo not drawn) | 81.7 µM (inactive) | > 100 µM (inactive) | > 100 µM (inactive) | > 100 µM (inactive) | 78.9 µM (inactive) | – | 23.6 µM (inactive) | 41.2 µM (inactive) | > 100 µM (inactive) | 36.5 µM (inactive) | – | 11.9 µM (inactive) | 23.8 µM (inactive) | 2.79 µM (inactive) | 40.7 µM (inactive) | > 100 µM (inactive) | 65.2 µM (inactive) | – | > 100 µM (inactive) | 24.2 µM (inactive) |
| CCOC(=O)c1ccc(/N=C2\SC(=S)N(c3ccc(F)cc3)\C2=N/c2ccc(C(=O)OCC)cc2)cc1 | 3.68 µM (inactive) | 13.2 µM (inactive) | 41 µM (inactive) | 24.8 µM (inactive) | 17 µM (inactive) | – | 65.2 µM (inactive) | 18.8 µM (inactive) | 15.5 µM (inactive) | 14.2 µM (inactive) | – | 8.07 µM (inactive) | 5.97 µM (inactive) | 7.76 µM (inactive) | 17.8 µM (inactive) | 12.5 µM (inactive) | 6.75 µM (inactive) | – | 17.9 µM (inactive) | 13.9 µM (inactive) |
| COc1cc2c(c3nc4ccccc4nc13)-c1ccc(SC)c(=O)cc1[C@@H](NC(C)=O)CC2 | 0.0438 µM (active) | > 56.4 µM (inactive) | 0.377 µM (active) | 0.0193 µM (active) | 6.9 µM (inactive) | – | 0.0475 µM (active) | 0.0485 µM (active) | 0.0106 µM (active) | 0.0372 µM (active) | – | 0.0373 µM (active) | 0.0327 µM (active) | 0.149 µM (active) | 0.0247 µM (active) | 0.0752 µM (active) | 0.0617 µM (active) | – | 0.0166 µM (active) | 0.0182 µM (active) |
